Measurements from article PMC6689897, “Drugging an undruggable pocket on KRAS” (Proceedings of the National Academy of Sciences of the …, 2019).

How the values were obtained:
GDP-KRASG12C::SOS1 = GDP-KRASG12C::SOS1 (Homo sapiens, UniProt P01116, C118S/C51S/C80L/G12C); test: Alpha Screen PPI assay; format: biochemical; settings: for IC50: Alpha Screen, duplicate
Experimental: (§1) 221 Measurements of various protein–protein interactions were performed using the Alpha
(§2) 222 Screen technology developed by Perkin Elmer. Recombinant RAS proteins (H-, N-, K-
(§3) 223 RAS variants; all KRAS variants are based on KRAS isoform 4B (uniprot id P01116-2);
(§4) 224 KRAS (G12D) 1-169, N-terminal 6His-tag, C-terminal avi-tag was from Xtal
(§5) 225 BioStructures, Inc., KRAS (G12C) 1-169, C-terminal avi-tag, biotinylated, mutations:
(§6) 226 C51S, C80L, C118S, NRAS(wt) 1-172, C-terminal avi-tag, biotinylated; HRAS(wt) 1-
(§7) 227 166, C-terminal avi-tag, biotinylated). Biotinylation was performed in vitro with
(§8) 228 recombinant BirA biotin-protein ligase as recommended by the manufacturer (Avidity
(§9) 229 LLC, Aurora, Colorado, USA). Interacting proteins such as SOS1 (564-1049, N-terminal
(§10) 230 GST-tag, TEV cleavage site), cRaf (1-303, N-terminal GST-tag, TEV cleavage site) and
(§11) 231 PI3KA- RBD (160-317, N-term-HIS_GST-tag) were expressed as glutathione S
(§12) 232 transferase (GST) fusions. Accordingly, the Alpha Screen beads were glutathione coated
(§13) 233 Alpha Lisa acceptor beads (Perkin Elmer AL 109 R) and Alpha Screen Streptavidin
(§14) 234 conjugated donor beads (Perkin Elmer 6760002L). Nucleotides were purchased from
(§15) 236 interaction assays were carried out in PBS, containing 0.1% bovine serum albumin,
(§16) 237 0,05% Tween-20 and 10 µM of the corresponding nucleotide. Assays were carried out in
(§17) 238 white ProxiPlate-384 Plus plates (Perkin Elmer #6008280) in a final volume of 20 µL. In
(§18) 239 brief, biotinylated RAS proteins (10 nM final concentration) and GST-SOS1, GST-PI3K
(§19) 240 or GST-CRAF (10 nM final) were mixed with glutathione acceptor beads (5 µg/mL final
(§20) 241 concentration) in buffer, containing the corresponding nucleotides (GDP or GTP for
(§21) 242 assays containing SOS1, only GTP for interaction assays containing PI3K or CRAF) and
(§22) 243 were incubated for 30 min at room temperature. After addition of streptavidin donor
(§23) 244 beads (5 µg/mL final concentration) under green light, the mixture was further incubated
(§24) 245 for 60 min in the dark at room temperature. Single oxygen induced fluorescence was
(§25) 246 measured at an Enspire multimode plate reader (Perkin Elmer) according to the
(§26) 247 manufacturer’s recommendations. […]

GDP-KRASG12D::SOS1 = molecular target: T1, GDP-KRASG12D::SOS1 (Homo sapiens, UniProt P01116, G12D); test: Alpha Screen PPI assay; format: biochemical; settings: for IC50: Alpha Screen, duplicate
T1 construct: KRAS (G12D) 1-169, N-terminal 6His-tag, C-terminal avi-tag was from Xtal; 6His-tag (N); purchased Xtal BioStructures, Inc
Experimental: as §1, §2, §3, §4, §5, §6, §7, §8, §9, §10, §11, §12, §13, §14, §15, §16, §17, §18, §19, §20, §21, §22, §23, §24, §25, §26

GTP-KRASG12C::CRAF = GTP-KRASG12C::CRAF (Homo sapiens, UniProt P01116, C118S/C51S/C80L/G12C); test: Alpha Screen PPI assay; format: biochemical; settings: duplicate
Experimental: as §1, §2, §3, §4, §5, §6, §7, §8, §9, §10, §11, §12, §13, §14, §15, §16, §17, §18, §19, §20, §21, §22, §23, §24, §25, §26

GTP-KRASG12C::PI3Kα = GTP-KRASG12C::PI3Kα (Homo sapiens, UniProt P01116, C118S/C51S/C80L/G12C); test: Alpha Screen PPI assay; format: biochemical; settings: duplicate, read-out: IC50 GTP-KRASG12C::PI3K
Experimental: as §1, §2, §3, §4, §5, §6, §7, §8, §9, §10, §11, §12, §13, §14, §15, §16, §17, §18, §19, §20, §21, §22, §23, §24, §25, §26

GTP-KRASG12C::SOS1 = GTP-KRASG12C::SOS1 (Homo sapiens, UniProt P01116, C118S/C51S/C80L/G12C); test: Alpha Screen PPI assay; format: biochemical; settings: duplicate
Experimental: as §1, §2, §3, §4, §5, §6, §7, §8, §9, §10, §11, §12, §13, §14, §15, §16, §17, §18, §19, §20, §21, §22, §23, §24, §25, §26

KRAS = test: Alpha Screen PPI assays, summary over KRAS interactions (SOS1, CRAF, PI3Kα); format: biochemical, human
Source text: Using biochemical assays, we investigated whether 1 inhibited 3 of the 4 PPIs important for KRAS cycling (Fig. 5 A, i–iii). Namely, 1) GDP-KRAS interaction with the catalytic site of SOS ([33]), 2) GTP-KRAS interaction with the allosteric site of SOS ([34]), and 3) GTP-KRAS interaction with downstream effectors (CRAF and PI3Kα). We were unable to establish a biochemical assay for the fourth intervention point, namely, 4) GTP-KRAS interaction with its GAPs (Fig. 5 A, iv). As a reference compound for these assays, we used the KRAS^G12C-specific covalent inhibitor ARS-1620 ([35]). Compound 1 inhibited all 3 RAS cycle intervention points (1 to 3) in a dose-dependent manner (Fig. 5 B–E) in the range of 100 to 770 nM (SI Appendix, Table S6).
217 The coordinates and structure factors of the structures have been deposited at the
218 Protein Data Bank with the accession codes PDB Code 6GJ5, 6GJ6, 6GJ7, 6GJ8.
as §1, §2, §3, §4, §5, §6, §7, §8, §9, §10
231 PI3KA- RBD (160-317, N-term-HIS_GST-tag) were expressed as glutathione S […]
as §24, §25
247 manufacturer’s recommendations. Data were analyzed using the GraphPad Prism data […]

| Compound | activity on the GDP-dependent KRAS^G12C::SOS1 interaction (GDP-KRASG12C::SOS1) | IC50 (GDP-KRASG12C::SOS1) [nM] | inhibition of GDP-dependent interaction with G12D instead of G12C (GDP-KRASG12D::SOS1) | IC50 (GDP-KRASG12D::SOS1) [nM] | IC50 (GTP-KRASG12C::CRAF) [nM] | IC50 (GTP-KRASG12C::PI3Kα) [nM] | IC50 (GTP-KRASG12C::SOS1) [nM] | activity in all GTP-dependent KRAS assays (KRAS) | IC50 (KRAS; GDP-KRAS::SOS, GTP-KRAS::SOS, GTP-KRAS::effectors (CRAF, PI3Kα), read-out: inhibition of all 3 RAS cycle intervention points, range) [nM] |
| --- | --- | --- | --- | --- | --- | --- | --- | --- | --- |
| C=CC(=O)N1CCN(c2ncnc3c(F)c(-c4c(O)cccc4F)c(Cl)cc23)CC1 [ARS-1620, reference compound] | displayed activity | 590 | lost the ability to inhibit | > 10000 | > 10000 | > 10000 | > 10000 | inactive | – |
| Cn1cnc(Cn2ccc3ccc(CNCc4[nH]c5ccccc5c4[C@H]4NC(=O)c5ccc(O)cc54)cc32)c1 [Compound 1] | – | 450 | maintained the inhibitory function | 260 | 180 | 100 | 360 | – | 100 to 770 |
